The source of these data is ChEMBL document CHEMBL1201862, “PubChem BioAssay data set” (2004).

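Cultured in 96-well plates, cells were exposed to test compound for 48 hours across five concentrations. GI50 = concentration required for 50% inhibition of growth.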 The source made the active and inactive calls. Cut-off read from the data, not from the text of the source: active = GI50 up to about 1.1 µM and inactive = higher.

Among the test systems are HOP-92; Malme-3M; SF-295; BT-549; HOP-62; A549; NCI-H226; UACC-257; OVCAR-3; KM12; RPMI-8226; UACC-62; K562; M14; HL-60; RXF 393; PC-3; SNB-75; HCC 2998; NCI-H522.
Common to all, as to assay: NCI tumour cell line growth inhibition, 48 h

Consider `Cc1c(C#N)c2nnn(-c3ccccc3)c(=O)n2c1-c1ccccc1`, for which the GI50 was 31.3 µM (inactive) with HOP-92; 26.5 µM (inactive) in the test on Malme-3M; 0.752 µM (active) in the test with SF-295; 5.42 µM (inactive) in the test with BT-549; 4.48 µM (inactive) in the test on HOP-62; 1.29 µM (inactive) with A549. Moreover, the GI50 in the test with NCI-H226 is 2.84 µM (inactive); in the test on UACC-257 it was 25.4 µM (inactive); with OVCAR-3 it was 0.824 µM (active); with KM12, 0.839 µM (active); in the test with RPMI-8226, 1.24 µM (inactive); in the test with UACC-62, 4.79 µM (inactive). The GI50 is 0.236 µM (active) in the test with K562; 0.959 µM (active) with M14; 0.376 µM (active) with HL-60; 2.48 µM (inactive) with RXF 393; 1.43 µM (inactive) in the test with PC-3; 2.95 µM (inactive) in the test on SNB-75. Besides, the GI50 with HCC 2998 is 3.34 µM (inactive).

Regarding `CC(C)CCCC(C)[C@H]1CC[C@H]2NCCCC[C@]12C` (stereo partly drawn), the GI50 with HOP-92 is 3.48 µM (inactive); with Malme-3M, 4.61 µM (inactive); in the test on SF-295, 2.33 µM (inactive); in the test with BT-549, 9.38 µM (inactive); in the test with HOP-62, 9.08 µM (inactive); in the test with A549 it was 6.64 µM (inactive). The GI50 with NCI-H226 was 9.14 µM (inactive); with UACC-257 it was 3.83 µM (inactive); in the test on OVCAR-3 it was 11.9 µM (inactive); in the test on KM12, 2.68 µM (inactive); in the test on RPMI-8226 it was 1.92 µM (inactive); with UACC-62, 2.01 µM (inactive). For the same molecule, the GI50 in the test on K562 was 2.01 µM (inactive); with M14, 2.1 µM (inactive); in the test on HL-60, 1.93 µM (inactive); in the test on RXF 393 it was 2.14 µM (inactive); with PC-3, 3.07 µM (inactive); in the test on SNB-75 it was 6.03 µM (inactive). Further, the GI50 in the test with HCC 2998 was 1.37 µM (inactive).

For the molecule `O=C(O)c1ccc(Nc2nc3cc(C(F)(F)F)ccc3n3cccc23)cc1`, the GI50 was 64.6 µM (inactive) in the test on HOP-92; 84.7 µM (inactive) in the test on Malme-3M; 27.2 µM (inactive) with SF-295; 35.7 µM (inactive) in the test on BT-549; 41 µM (inactive) in the test with HOP-62; 23.4 µM (inactive) in the test on NCI-H522. Moreover, the GI50 in the test with A549 was 30.5 µM (inactive); with UACC-257, 30.2 µM (inactive); with OVCAR-3 it was 30.2 µM (inactive); in the test with KM12, 19.8 µM (inactive); in the test with RPMI-8226, 12.5 µM (inactive); with UACC-62, 23.9 µM (inactive). Also, the GI50 with K562 is 15.3 µM (inactive); with M14, 25.1 µM (inactive); in the test with HL-60 it was 18.4 µM (inactive); with RXF 393, 17.1 µM (inactive); in the test with PC-3 it was 25.5 µM (inactive); with SNB-75 it was 24.1 µM (inactive). Besides, the GI50 in the test on HCC 2998 is 15.7 µM (inactive).

For `COC(=O)C(CCSC)NC(=O)CSc1nnc(COc2ccc(Cl)cc2)n1-c1ccccc1` (stereo not drawn), the GI50 was 18.2 µM (inactive) in the test with HOP-92; 21.3 µM (inactive) in the test on Malme-3M; 17 µM (inactive) in the test with SF-295; 19.6 µM (inactive) with BT-549; 3.08 µM (inactive) in the test with HOP-62; 3.77 µM (inactive) with NCI-H522. The GI50 was 26.8 µM (inactive) in the test on A549; 21.4 µM (inactive) in the test on NCI-H226; 16.9 µM (inactive) with UACC-257; 18.2 µM (inactive) in the test on KM12; 0.883 µM (active) in the test on RPMI-8226; 18.2 µM (inactive) in the test with UACC-62. Also, the GI50 in the test on K562 was 24.5 µM (inactive); in the test on M14, 18.7 µM (inactive); with HL-60, 18.3 µM (inactive); with RXF 393 it was 19.1 µM (inactive); with PC-3, 18.9 µM (inactive); in the test on SNB-75, 16.7 µM (inactive). For the same molecule, in the test with HCC 2998, the GI50 was 7.52 µM (inactive).

In the case of `COc1c2cc(C(C)(C)C)cc1Cc1cccc(c1OCc1cccc([N+](=O)[O-])c1)Cc1cc(C(C)(C)C)cc(c1OC)Cc1cccc(c1OCc1cccc([N+](=O)[O-])c1)Cc1cc(C(C)(C)C)cc(c1OC)Cc1cccc(c1OCc1cccc([N+](=O)[O-])c1)C2`, the GI50 in the test on HOP-92 is > 50 µM (inactive); in the test with Malme-3M, > 50 µM (inactive); with SF-295, > 50 µM (inactive); with BT-549, 0.005 µM (active); with HOP-62 it was > 50 µM (inactive); with NCI-H522, > 50 µM (inactive). Moreover, the GI50 with A549, with UACC-257, with OVCAR-3, in the test with KM12, in the test with RPMI-8226 and with UACC-62 was > 50 µM (inactive) throughout. Also, the GI50 was > 50 µM (inactive) in the test with K562; > 50 µM (inactive) in the test with M14; > 50 µM (inactive) in the test with HL-60; > 50 µM (inactive) in the test with RXF 393; > 50 µM (inactive) in the test on PC-3; 23.3 µM (inactive) in the test on SNB-75. Further, the GI50 in the test with HCC 2998 is > 50 µM (inactive).

In the case of `CC(=O)NC(=N/N=C1/C(=O)Nc2ccc(C)cc21)NC(C)=O`, the GI50 is > 100 µM (inactive) in the test on HOP-92; > 100 µM (inactive) in the test with Malme-3M; 52.1 µM (inactive) in the test on SF-295; > 100 µM (inactive) with BT-549; > 100 µM (inactive) with HOP-62; > 100 µM (inactive) with NCI-H522. Moreover, the GI50 in the test on A549 was > 100 µM (inactive); with NCI-H226 it was 98.2 µM (inactive); in the test on UACC-257, > 100 µM (inactive); with KM12, > 100 µM (inactive); in the test on RPMI-8226, > 100 µM (inactive); in the test with UACC-62, > 100 µM (inactive). Also, the GI50 in the test with K562 is > 100 µM (inactive); in the test with M14, > 100 µM (inactive); in the test on HL-60, > 100 µM (inactive); in the test on RXF 393, 68.1 µM (inactive); in the test with PC-3, > 100 µM (inactive); in the test with SNB-75 it was 31.6 µM (inactive). Moreover, in the test on HCC 2998, the GI50 is > 100 µM (inactive).

As for `Cc1cn(C2CC(O)C(Cn3nncc3Cn3nc(Br)c(=O)[nH]c3=O)O2)c(=O)[nH]c1=O` (stereo not drawn), the GI50 with HOP-92, in the test on Malme-3M, in the test on SF-295, with BT-549, in the test on HOP-62 and in the test on NCI-H522 was > 100 µM (inactive) in each case. Also, the GI50 with A549, in the test on NCI-H226, in the test on UACC-257, in the test with OVCAR-3, in the test on KM12 and in the test on RPMI-8226 was > 100 µM (inactive) each time. For the same molecule, the GI50 in the test on UACC-62, in the test with M14, in the test on RXF 393, in the test with PC-3 and in the test on HCC 2998 was > 100 µM (inactive) in each case.

As to `O=C1Nc2cc([N+](=O)[O-])ccc2C(=O)N2CCC[C@@H]12`, the GI50 in the test on HOP-92, in the test with SF-295, in the test with BT-549, in the test with HOP-62, in the test with NCI-H522 and in the test on A549 was > 100 µM (inactive) throughout. For the same molecule, the GI50 in the test with NCI-H226, in the test on UACC-257, in the test with OVCAR-3, in the test on KM12, with RPMI-8226 and in the test on UACC-62 was > 100 µM (inactive) throughout. Also, the GI50 in the test on K562, in the test on M14, with HL-60, in the test with RXF 393, with PC-3 and with SNB-75 was > 100 µM (inactive) throughout. The GI50 in the test with HCC 2998 is > 100 µM (inactive).

On to `CCN(CC)CCO/N=C1/C=C2CCC3C(CC[C@@]4(C)C3CC[C@]4(C)O)[C@@]2(C)CC1` (stereo partly drawn), for which the GI50 in the test on HOP-92 is 4.9 µM (inactive); in the test with Malme-3M, 3.64 µM (inactive); in the test with SF-295 it was 2.33 µM (inactive); in the test with BT-549, 11.7 µM (inactive); with HOP-62, 4.06 µM (inactive); in the test on NCI-H522, 2.16 µM (inactive). The GI50 in the test with A549 is 7.36 µM (inactive); in the test with NCI-H226 it was 2.49 µM (inactive); with UACC-257 it was 4.9 µM (inactive); in the test on OVCAR-3, 2.8 µM (inactive); in the test with KM12, 5.43 µM (inactive); with RPMI-8226, 4.28 µM (inactive). The GI50 in the test with UACC-62 is 2.76 µM (inactive); in the test on K562 it was 4.48 µM (inactive); with M14 it was 8.79 µM (inactive); in the test with RXF 393 it was 15.5 µM (inactive); in the test on PC-3, 4.6 µM (inactive); in the test on SNB-75, 2.89 µM (inactive). The GI50 with HCC 2998 was 5.22 µM (inactive).

For the molecule `O=C1CC(O)c2c(Br)sc(Br)c21` (stereo not drawn), the GI50 in the test with HOP-92 is 17.9 µM (inactive); with Malme-3M it was 17.1 µM (inactive); in the test with SF-295, 17.1 µM (inactive); in the test with BT-549, 29.7 µM (inactive); in the test on HOP-62, 10.6 µM (inactive); with NCI-H522, 8.28 µM (inactive). The GI50 was 19.3 µM (inactive) with A549; 3.85 µM (inactive) in the test on UACC-257; 4.69 µM (inactive) with OVCAR-3; 7.48 µM (inactive) with KM12; 2.47 µM (inactive) in the test on RPMI-8226; 13.4 µM (inactive) with UACC-62. The GI50 in the test on K562 was 2.8 µM (inactive); in the test with M14 it was 13.9 µM (inactive); in the test with HL-60, 3.2 µM (inactive); in the test on RXF 393 it was 2.5 µM (inactive); with PC-3, 13 µM (inactive); in the test on SNB-75, 16 µM (inactive). Further, in the test with HCC 2998, the GI50 was 6 µM (inactive).
